Square brackets hold non-standard residues; d marks the D form. Peptide text beside a SMILES is read from it. * marks the point of attachment. FITC = O=C1OC2(c3ccc(O)cc3Oc3cc(O)ccc32)c2ccc(NC(=S)*)cc21; pT = C[C@@H](OP(=O)(O)O)[C@H](N)C(=O)O; pS = N[C@@H](COP(=O)(O)O)C(=O)O A value given as a limit tells only on which side of the number the result lay.

The values that follow come from PMC5716189, “Characterization of the APLF FHA–XRCC1 phosphopeptide interaction and its structural and functional implications” (Nucleic Acids Research, 2017).

The target of data set [1] is T1, APLF FHA domain (Homo sapiens, UniProt Q8IW19).
T1 construct: His6 (N, cleaved yes); TEV cleavage site (N, cleaved yes); made in house; host or cells: Escherichia coli Rosetta2 (DE3)
T1 sequence (Q8IW19 1-108 limits assumed): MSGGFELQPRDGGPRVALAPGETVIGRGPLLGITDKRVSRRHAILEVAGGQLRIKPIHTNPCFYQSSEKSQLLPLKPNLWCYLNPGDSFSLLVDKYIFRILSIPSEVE
The experiment in a line: Fluorescence polarization peptide binding assay. The following applies: FP; for Kd: room temperature. The method, then: Apparent dissociation constants for peptide-protein interactions were determined based on fluorescence polarization measurements of fluorescein-labeled peptides on a POLARstar Omega fluorescence polarization (FP) reader (BMG Labtech) using an excitation wavelength of 485 nm and the emission measured at 520 nm at room temperature. XRCC1 phosphopeptides used in FP studies (Table 1) were labeled with an N-terminal FITC-Gly-Gly fluorophore. Measurements were made as a function of pH in the range from pH 7.4 to 5.5 in FP buffer consisting of 25 mM HEPES, 25 mM MES, 150 mM NaCl, 1 mM EDTA, 2 mM DTT and 0.05% Tween 20. Samples of the APLF FHA domain in FP buffer were prepared at pH 7.4, 7.0, 6.5, 6.0 and 5.5. Samples corresponding to each titration step were put in a 96-well black flat-bottomed plate and the fluorescence emission polarization was determined. The FP results were normalized to a 0–1 scale after curve-fitting for the direct comparison of results from different conditions. Data for the interaction of a phosphopeptide (L) with APLF FHA (M) were fit to a single-site binding equation as described previously ([39]). All phosphopeptides used were synthesized by either GenScript or Thermo Fisher.
(In general: Fluorescence polarisation rises when a labelled molecule tumbles more slowly, as on binding a larger partner.)

For data set [2], the target named is T1, APLF FHA domain. The experiment in a line: NMR lineshape simulation of amide exchange data. Type of data set: binding. The following applies: two-site exchange lineshape simulation; pH 7.4; 35°C. The method, then:
All NMR experiments were performed at 35°C on a Varian INOVA 500 MHz spectrometer equipped with a triple-resonance, pulsed-field gradient cryo-probe, with the exception of the ^31P experiments, which were collected on an Agilent/Varian DD2 600 MHz spectrometer equipped with a heteronuclear broadband probe. The backbone chemical shift assignments were made from 3D HNCACB, CBCA(CO)NH, HNCA, HN(CO)CA, HNCO and HN(CA)CO experiments that were obtained using Agilent BioPack pulse sequences (Agilent). The 3D experiments were acquired with non-uniform sampling to speed up the data acquisition ([36],[37]). Since several of the amide resonances were broadened as a result of the intermediate amide proton exchange dynamics at pH 7.4, a low pH buffer, 25 mM sodium citrate, 50 mM NaCl, and 1 mM EDTA, pH 5.5, was used for the amide backbone assignments. For phosphopeptide titration experiments, 2D ^1H,^15N-HSQC spectra were acquired on a sample containing 0.1 mM U-[^15N] […]
The lineshape simulations utilized a Mathematica algorithm (Wolfram Research, Champaign, IL, USA) based on the two-site exchange formalism given by Rogers and Woodbrey ([40]). The fraction of bound ligand, pB, is initially calculated using the above relation, the FHA domain and peptide concentrations and an assumed Kd value which is then varied to optimize the agreement with the experimental spectra. […]

Data set [3] addresses T1, APLF FHA domain. The experiment in a line: 1H,15N-HSQC NMR titration with inorganic anions. Format: binding. The note with it: for amide shift changes of U-[15N] APLF FHA produced by the anion: 0-150 mM titrant, 0.1 mM protein; for Kd: amide shifts of the more strongly shifted resonances, 25 mM HEPES, 25 mM MES, 150 mM NaCl, 1 mM EDTA, 1:1 binding, read-out: phosphate Kd. On the procedure:
All NMR experiments were performed at 35°C on a Varian INOVA 500 MHz spectrometer equipped with a triple-resonance, pulsed-field gradient cryo-probe, with the exception of the ^31P experiments, which were collected on an Agilent/Varian DD2 600 MHz spectrometer equipped with a heteronuclear broadband probe. The backbone chemical shift assignments were made from 3D HNCACB, CBCA(CO)NH, HNCA, HN(CO)CA, HNCO and HN(CA)CO experiments that were obtained using Agilent BioPack pulse sequences (Agilent). The 3D experiments were acquired with non-uniform sampling to speed up the data acquisition ([36],[37]). Since several of the amide resonances were broadened as a result of the intermediate amide proton exchange dynamics at pH 7.4, a low pH buffer, 25 mM sodium citrate, 50 mM NaCl, and 1 mM EDTA, pH 5.5, was used for the amide backbone assignments. For phosphopeptide titration experiments, 2D ^1H,^15N-HSQC spectra were acquired on a sample containing 0.1 mM U-[^15N] APLF-FHA in 25 mM HEPES, 25 mM MES, 150 mM NaCl, 1 mM EDTA, pH 7.4 as a function of phosphopeptide concentration. The interaction of sodium phosphate, sodium sulfate, and sodium ethylsulfate with U-[^15N] APLF FHA sample was also studied by monitoring the ^1H,^15N-HSQC spectrum of the labeled protein as a function of the anion concentration. The volume of peptide or anion added never exceeded more than 10% of the total volume.

For data set [4] the following is noted: free amino acid; cited from earlier work. From the text:
This selectivity implies that most phosphopeptides formed by CK2-dependent phosphorylation contain multiple anionic residues and are often multiply phosphorylated.

A short description of data set [5]: 31P NMR pH titration of free phosphopeptides (pK determination). Format: physicochemical. The following applies: pH 8.5 to 4.0, 0.5 mM peptide, 50 mM sodium acetate, 50 mM sodium cacodylate, 1 mM EDTA, TMP reference, Henderson-Hasselbalch fit. On the procedure:
1D ^31P-NMR experiments were employed to determine the pK values of the phosphate groups in phosphopeptides and to characterize the interaction of the phosphopeptide with the APLF-FHA domain. Experimental parameters included a ^31P offset of 2.48 ppm, a sweep width of 20 ppm, an acquisition time of 1 sec, a relaxation delay of 1 sec, and 1024 scans were acquired per experiment. Phosphopeptide concentrations of 0.5 mM were used in all 1D ^31P NMR experiments. A two-dimensional selective ^1H,^31P-HSQC experiment ([38]) was used to assign the phosphoserine and phosphothreonine resonances. […]
Measurements of the pK values of the free phosphopeptides were performed in 50 mM sodium acetate, 50 mM sodium cacodylate, 1 mM EDTA as a function of pH with 0.5 mM tri-methylphosphate (TMP) added as a chemical shift reference. Small amounts of 0.1 N NaOH or HCl were titrated to vary the pH in the range from 8.5 to 4.0 in 0.2–0.4 pH decrements. pK values were determined by fitting the pH-dependent chemical shift data to a Henderson–Hasselbalch equation: where δP and δU correspond to the protonated and unprotonated chemical shifts. The dependence of the phosphopeptide ^31P NMR shifts as a function of APLF FHA domain concentration were determined in 25 mM HEPES, 25 mM MES, 150 mM NaCl, 1 mM EDTA, pH 7.4, with 0.25 mM TMP added as a chemical shift reference. […]

The mark [6] stands for this setting: pH 6.0, FITC-Gly-Gly labelled peptide, FP buffer.
Setting [7] is: pH 6.5, FITC-Gly-Gly labelled peptide, FP buffer.
Where [8] appears, read: pH 7.4, N-terminal FITC-Gly-Gly labelled peptide, 25 mM HEPES, 25 mM MES, 150 mM NaCl, 1 mM EDTA, 2 mM DTT, 0.05% Tween 20, single-site fit.

For the compound `C[C@H](NC(=O)[C@H](Cc1ccc(O)cc1)NC(=O)[C@@H]1CCCN1C(=O)[C@@H](N)CC(=O)O)C(=O)NCC(=O)N[C@@H](CCC(=O)O)C(=O)N[C@H](C(=O)N[C@@H](CC(=O)O)C(=O)N[C@@H](CCC(=O)O)C(=O)N[C@@H](CC(N)=O)C(=O)N[C@H](C(=O)N[C@@H](CC(=O)O)C(=O)N[C@@H](CO)C(=O)N[C@@H](CCC(=O)O)C(=O)N[C@@H](CCC(=O)O)C(=O)N[C@@H](Cc1c[nH]cn1)C(=O)N[C@@H](CCC(N)=O)C(=O)N[C@@H](CCC(=O)O)C(=O)O)[C@@H](C)O)[C@@H](C)OP(=O)(O)O` [XRCC1EpT-18] (H-DPYAGE[pT]DENTDSEEHQE-OH), the Kd – broadly, the equilibrium constant for the complex coming apart – in data set [1] (setting [6]) was > 300 µM; in data set [1] (setting [7]), > 50 µM; in data set [1] (setting [8]) it was 9.94 ± 4.6 µM.
In the case of `C[C@H](NC(=O)[C@H](Cc1ccc(O)cc1)NC(=O)[C@@H]1CCCN1C(=O)[C@H](CC(=O)O)NC(=O)CNC(=O)CNC(=S)Nc1ccc2c(c1)C(=O)OC21c2ccc(O)cc2Oc2cc(O)ccc21)C(=O)NCC(=O)N[C@@H](CO)C(=O)N[C@H](C(=O)N[C@@H](CC(=O)O)C(=O)N[C@@H](CCC(=O)O)C(=O)N[C@@H](CC(N)=O)C(=O)N[C@H](C(=O)N[C@@H](CC(=O)O)C(=O)N[C@@H](CO)C(=O)N[C@@H](CCC(=O)O)C(=O)N[C@@H](CCC(=O)O)C(=O)N[C@@H](Cc1c[nH]cn1)C(=O)N[C@@H](CCC(N)=O)C(=O)N[C@@H](CCC(=O)O)C(=O)O)[C@@H](C)O)[C@@H](C)OP(=O)(O)O` [XRCC1SpT-18] ({FITC}-GGDPYAGS[pT]DENTDSEEHQE-OH; C-terminus assumed), in data set [1] (setting [8]), the Kd was > 20 µM.
As to `C[C@H](NC(=O)[C@H](Cc1ccc(O)cc1)NC(=O)[C@@H]1CCCN1C(=O)[C@H](CC(=O)O)NC(=O)CNC(=O)CNC(=S)Nc1ccc2c(c1)C(=O)OC21c2ccc(O)cc2Oc2cc(O)ccc21)C(=O)NCC(=O)N[C@@H](COP(=O)(O)O)C(=O)N[C@H](C(=O)N[C@@H](CC(=O)O)C(=O)N[C@@H](CCC(=O)O)C(=O)N[C@@H](CC(N)=O)C(=O)N[C@H](C(=O)N[C@@H](CC(=O)O)C(=O)N[C@@H](CO)C(=O)N[C@@H](CCC(=O)O)C(=O)N[C@@H](CCC(=O)O)C(=O)N[C@@H](Cc1c[nH]cn1)C(=O)N[C@@H](CCC(N)=O)C(=O)N[C@@H](CCC(=O)O)C(=O)O)[C@@H](C)O)[C@@H](C)OP(=O)(O)O` [XRCC1pSpT-18] ({FITC}-GGDPYAG[pS][pT]DENTDSEEHQE-OH; C-terminus assumed), the Kd in data set [1] (pH 5.5, FITC-Gly-Gly labelled peptide, FP buffer) is > 60 µM; in data set [1] (setting [6]), > 25 µM; in data set [1] (setting [7]), 8.23 ± 1.89 µM; in data set [1] (pH 7.0, FITC-Gly-Gly labelled peptide, FP buffer), 4.67 ± 0.04 µM; in data set [1] (setting [8]), 3.31 ± 0.15 µM. Besides, the “fold reduction of binding affinity at pH 6.0” value in data set [1] (pH 6.0 relative to pH 7.4) is reported as > 8 fold. Also, the “fold reduction of binding affinity at pH 6.5” value in data set [1] (pH 6.5 relative to pH 7.4) was “less than 2.5 fold”. Further, in data set [2], the “τB, lifetime of the protein-peptide complex” value was 0.9 ms.
Turning to `C[C@H](NC(=O)[C@H](Cc1ccc(O)cc1)NC(=O)[C@@H]1CCCN1C(=O)[C@H](CC(=O)O)NC(=O)CNC(=O)CNC(=S)Nc1ccc2c(c1)C(=O)OC21c2ccc(O)cc2Oc2cc(O)ccc21)C(=O)NCC(=O)N[C@@H](COP(=O)(O)O)C(=O)N[C@H](C(=O)N[C@@H](CC(=O)O)C(=O)N[C@@H](CCC(=O)O)C(=O)N[C@@H](CC(N)=O)C(=O)N[C@@H](CCC(=O)O)C(=O)N[C@@H](CC(=O)O)C(=O)N[C@@H](CCC(=O)O)C(=O)N[C@@H](CCC(=O)O)C(=O)N[C@@H](CCC(=O)O)C(=O)N[C@@H](Cc1c[nH]cn1)C(=O)N[C@@H](CCC(N)=O)C(=O)N[C@@H](CCC(=O)O)C(=O)O)[C@@H](C)OP(=O)(O)O` [XRCC1pSpTEE-18] ({FITC}-GGDPYAG[pS][pT]DENEDEEEHQE-OH; C-terminus assumed), the “fold reduction of Kd relative to XRCC1pSpT-18” value in data set [1] (pH 7.4) is recorded as 10 fold.
Consider `CCOS(=O)(=O)[O-].[Na+]` [ethylsulfate, sodium ethylsulfate], for which the “amide shift changes of U-[15N] APLF FHA produced by the anion” value in data set [3] (pH 7.4) is reported as “fails to produce any significant amide shifts”; in data set [3] (pH 7.4, listed as sodium ethylsulfate), “negligible shifts”.
Take `O=P(O)(O)O` [phosphate, sodium phosphate]: the equilibrium dissociation constant (Kd) in data set [3] (pH 5.5) was determined as 92500 ± 17800 µM; in data set [3] (pH 7.4), 14100 ± 3700 µM.
As to `N[C@@H](COP(=O)(O)O)C(=O)O` [phosphoserine], in data set [4], the “phosphate pK (dianionic/monoanionic)” value is “approximately 5.75”.
In the case of `C[C@@H](OP(=O)(O)O)[C@H](N)C(=O)O` [phosphothreonine], the “phosphate pK (dianionic/monoanionic)” value in data set [4] is ~5.95.
With `O=S(=O)([O-])[O-].[Na+].[Na+]` [sulfate, sodium sulfate], the “amide shift changes of U-[15N] APLF FHA produced by the anion” value in data set [3] (pH 7.4) was “perturbs the same resonances that are sensitive to phosphate, although to a lesser extent”.
As to “VYDEpSpTDEESEN [XRCC4pSpT-12, 12-residue XRCC4 peptide phosphorylated on Ser232/Thr233]”, in data set [5], the “pK of pSer phosphate” value turned out to be 6.90 and the “pK of pThr phosphate” value is 7.22.
